“Also recorded” adds a separate entry of the source.
Experiment: Long term storage stability of the crystalline form, measured by PXRD
Assay type: physicochemical
Conditions: stored at 2° C. to 8° C. for one year; solid form checked by PXRD
Procedure: The polymorphs disclosed herein may be characterized by their X-ray powder diffraction (PXRD) patterns. Thus, samples of carfilzomib prepared by processes disclosed herein, including crystalline carfilzomib form M1 and amorphous carfilzomib, were analyzed by PXRD on a BRUKER D-8 DISCOVER powder diffractometer equipped with goniometer of θ/2θ configuration and LYNX EYE detector. The Cu-anode X-ray tube was operated at 40 kV and 30 mA. The experiments were conducted over the 2θ range of 2.0°-50.0°, 0.030° step size, and 0.4 seconds step time.
In some samples, individual impurities were present at levels less than 0.1%.

## CC(C)C[C@H](NC(=O)[C@H](CCc1ccccc1)NC(=O)CN1CCOCC1)C(=O)N[C@@H](Cc1ccccc1)C(=O)N[C@@H](CC(C)C)C(=O)[C@@]1(C)CO1 [crystalline carfilzomib form M1, (2S)-N-((S)-1-((S)-4-methyl-1-((R)-2-methyloxiran-2-yl)-1-oxopentan-2-ylcarbamoyl)-2-phenylethyl)-2-((S)-2-(2-morpholinoacetamido)-4-phenylbutanamido)-4-methylpentanamide]
  stability (measured by PXRD): exhibited stability; also recorded: stable

From US20180362580A1, “CRYSTALLINE AND AMORPHOUS FORMS OF CARFILZOMIB” (Mylan Laboratories Limited, priority 2015, published 2018)
